Experimental findings from patent US9388175B2, “2-aniline-4-aryl substituted thiazole derivatives” (Janssen Pharmaceutica N.V., priority 2005, dated 2016) are described below.

Structures can show the parent of a compound that is named as a salt.

For data set [1], the target named is T1, hα7-wt nAChR stably expressed in the GH4C1 cell line (Homo sapiens, UniProt P36544).
T1 construct: expressed in transfected cells
The experiment in a line: Ca2+ flux imaging (FLIPR) of PAM activity with choline as agonist. Type of data set: cell-based. Conditions: efficacy relative to 100 μM choline alone (defined as 1); peak fluorescence, fluo-4AM; compounds tested 0.1 μM to 30 μM, efficacy criterion at 10 μM. Background: Calcium assays in cells follow changes in intracellular calcium, usually with a dye or a luminescent sensor.

T1 sequence (P36544 23-502): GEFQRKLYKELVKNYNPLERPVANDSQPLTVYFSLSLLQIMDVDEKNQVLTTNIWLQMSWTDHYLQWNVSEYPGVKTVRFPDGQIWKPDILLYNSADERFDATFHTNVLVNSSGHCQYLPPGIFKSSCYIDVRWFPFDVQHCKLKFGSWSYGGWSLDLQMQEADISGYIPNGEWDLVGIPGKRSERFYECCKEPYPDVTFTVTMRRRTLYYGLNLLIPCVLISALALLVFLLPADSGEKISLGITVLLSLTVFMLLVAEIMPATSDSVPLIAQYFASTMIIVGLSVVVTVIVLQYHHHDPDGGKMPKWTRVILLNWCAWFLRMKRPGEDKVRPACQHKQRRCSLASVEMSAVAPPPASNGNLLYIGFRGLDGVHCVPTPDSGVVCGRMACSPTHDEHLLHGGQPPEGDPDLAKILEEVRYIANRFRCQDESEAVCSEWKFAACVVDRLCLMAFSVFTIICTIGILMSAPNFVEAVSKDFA

As for `NC(=O)Cc1sc(Nc2cccc(C(F)(F)F)c2)nc1-c1ccccc1` [Compound 1, 2-[4-Phenyl-2-(3-trifluoromethyl-phenylamino)-thiazol-5-yl]-acetamide], the melting point (usually the temperature, or range, at which the solid turns liquid) lay within 186 to 187 °C. Also, in data set [1], the “Activity Range” value is “C (C denotes an activity range from 2.0 till 3.0)”.
`Fc1ccc(Nc2nc(-c3cnc4ccccn34)cs2)cc1C(F)(F)F` (as salt: HCl) [Compound 9] returned a melting point of 248 °C.
Take `CNC(=O)Cc1sc(Nc2cc(Cl)ccc2Cl)nc1-c1ccncc1` [Compound 163]: the melting point was in the range of 237.2 to 244 °C. Besides, the “Activity Range” value in data set [1] was “E (E denotes an efficacy from at least 4.5)”.
The matching figures for `Cc1cc(Nc2nc(-c3ccc(Cl)nc3)cs2)ccc1F` [Compound 2]: 175 °C and “D (D denotes an activity range from 3.0 till 4.5)”.
On to `O=C(NCc1sc(Nc2cccc(C(F)(F)F)c2)nc1-c1cccnc1)c1ccccc1` [Compound 164], for which the melting point lay in the range of 215.5 to 218.9 °C. Moreover, the “Activity Range” value in data set [1] is “E (E denotes an efficacy from at least 4.5)”.
`NC(=O)Cc1sc(Nc2cc(Cl)ccc2Cl)nc1-c1ccncc1` [Compound 113, 2-[(2,5-dichlorophenyl)amino]-4-(4-pyridinyl)-5-thiazoleacetamide]: the melting point lay in the range of 249.6 to 257.1 °C. For the same compound, in data set [1], the “Activity Range” value is “E (E denotes an efficacy from at least 4.5)”.
Compound `CS(=O)(=O)NCc1sc(Nc2cccc(C(F)(F)F)c2)nc1-c1cccnc1` [Compound 109] displayed a melting point of 213.6 to 219.8 °C. In data set [1], the “Activity Range” value was “E (E denotes an efficacy from at least 4.5)”.
`CCOC(=O)Cc1sc(Nc2cc(Cl)ccc2Cl)nc1-c1ccncc1` [int. 30] gave a melting point of 156.8 to 163.5 °C. In addition, in data set [1], the “Activity Range” value is “E (E denotes an efficacy from at least 4.5)”.
`COCc1sc(Nc2cc(Cl)ccc2Cl)nc1-c1ccncc1` [Compound 136] yielded a melting point of 205.3 to 205.8 °C. In addition, in data set [1], the “Activity Range” value is recorded as “E (E denotes an efficacy from at least 4.5)”.
On to `COc1ccc(Nc2nc(-c3ccncc3)c(CO)s2)cc1` [Compound 122, 2-[(4-methoxyphenyl)amino]-4-(4-pyridinyl)-5-thiazolemethanol], for which the melting point was in the range of 126.2 to 126.8 °C. Besides, the “Activity Range” value in data set [1] was “E (E denotes an efficacy from at least 4.5)”.
For `OCc1sc(Nc2cc(Cl)ccc2Cl)nc1-c1ccccc1` [int. 23], the melting point lay in the range of 172.8 to 175 °C. Further, in data set [1], the “Activity Range” value is on record as “D (D denotes an activity range from 3.0 till 4.5)”.
Take `CC(=O)NCc1sc(Nc2ccc(F)c(C(F)(F)F)c2)nc1-c1cccnc1` [Compound 32]: in data set [1], the “Activity Range” value is reported as “C (C denotes an activity range from 2.0 till 3.0)”.
As to `Cc1cncc(-c2csc(Nc3cccc(Cl)c3Cl)n2)c1` [Compound 67], the “Activity Range” value in data set [1] is “C (C denotes an activity range from 2.0 till 3.0)”.
Take `Fc1cccc(-c2nc(Nc3cccc(C(F)(F)F)c3)sc2F)c1` [Compound 7]: the “Activity Range” value in data set [1] is reported as “C (C denotes an activity range from 2.0 till 3.0)”.
As to `COc1ccc(Nc2nc(-c3cnc4ccccn34)cs2)cc1OC` [Compound 55], in data set [1], the “Activity Range” value is “B (B denotes an activity range from 1.5 till 2.0)”.
